In ChEMBL document CHEMBL1921674, “Novel tricyclic inhibitors of IKK2: discovery and SAR leading to the identification of 2-methoxy-N-((6-(1-methyl-4-(methylamino)-1,6-dihydroimidazo[4,5-d]pyrrolo[2,3-b]pyridin-7-yl)pyridin-2-yl)methyl)acetamide (BMS-066)” (Bioorg Med Chem Lett, 2011):
The source made the active and inactive calls. No cut-off for these calls is given here.

Columns and labels:
[1] = target: T1, Protein-tyrosine kinase 6 (Homo sapiens, UniProt Q13882); test: Inhibition of BRK
Target sequence in this assay (Q13882 whole entry, the tested form may be a part): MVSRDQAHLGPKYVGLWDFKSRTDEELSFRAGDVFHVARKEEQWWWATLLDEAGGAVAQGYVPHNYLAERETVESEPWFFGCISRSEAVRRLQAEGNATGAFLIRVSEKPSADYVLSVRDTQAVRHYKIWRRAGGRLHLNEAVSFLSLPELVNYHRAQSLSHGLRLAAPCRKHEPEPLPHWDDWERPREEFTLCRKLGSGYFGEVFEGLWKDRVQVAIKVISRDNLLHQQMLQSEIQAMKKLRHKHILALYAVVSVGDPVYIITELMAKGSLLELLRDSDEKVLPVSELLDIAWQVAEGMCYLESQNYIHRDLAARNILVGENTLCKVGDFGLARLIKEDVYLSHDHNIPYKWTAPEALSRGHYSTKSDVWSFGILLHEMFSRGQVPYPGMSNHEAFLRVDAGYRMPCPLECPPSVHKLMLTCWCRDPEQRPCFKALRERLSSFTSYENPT

[2] = target: T2, Inhibitor of nuclear factor kappa-B kinase subunit beta (Homo sapiens, UniProt O14920); test: Inhibition of human IKK2-mediated GST-IkappaBalpha protein fusion phosphorylation
T2 sequence (O14920 whole entry): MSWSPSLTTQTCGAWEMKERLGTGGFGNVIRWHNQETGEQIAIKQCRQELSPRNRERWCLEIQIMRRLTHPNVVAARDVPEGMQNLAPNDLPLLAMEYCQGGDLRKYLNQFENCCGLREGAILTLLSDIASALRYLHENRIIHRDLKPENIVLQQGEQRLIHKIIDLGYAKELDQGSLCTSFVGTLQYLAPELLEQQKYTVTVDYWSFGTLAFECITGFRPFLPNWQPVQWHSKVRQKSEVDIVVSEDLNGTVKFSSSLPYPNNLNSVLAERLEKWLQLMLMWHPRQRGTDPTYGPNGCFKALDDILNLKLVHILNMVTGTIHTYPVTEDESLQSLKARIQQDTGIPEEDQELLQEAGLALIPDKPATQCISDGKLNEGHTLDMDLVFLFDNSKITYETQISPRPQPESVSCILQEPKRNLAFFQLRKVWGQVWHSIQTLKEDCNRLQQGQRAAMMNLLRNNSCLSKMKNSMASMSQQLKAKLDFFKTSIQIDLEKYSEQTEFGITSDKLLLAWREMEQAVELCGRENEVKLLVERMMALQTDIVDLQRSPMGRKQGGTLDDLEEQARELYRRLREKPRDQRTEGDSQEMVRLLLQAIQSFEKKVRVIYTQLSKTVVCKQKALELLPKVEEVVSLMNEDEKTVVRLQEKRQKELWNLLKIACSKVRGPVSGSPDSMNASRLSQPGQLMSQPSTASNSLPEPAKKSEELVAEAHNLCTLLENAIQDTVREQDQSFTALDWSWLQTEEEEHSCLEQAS

[3] = tested on: Mus musculus; test: Reduction in TNBS-induced colitis in mouse […] model assessed as decrease in tissue damage at 10 mg/kg administered intrarectally 1 day before TNBS challenge twice daily for 4 days by hematoxylin-eosin staining relative to control; assay type: functional, organism-based; set-up: dose 10 mg/kg
[4] = Volume of distribution at steady state in Lewis rat at 2 mg/kg, iv; assay type: ADME, organism-based; set-up: dose 2 mg/kg, route intravenous; details: in vivo, read-out: Vdss
[5] = target: Cytochrome P450 2C19 (Homo sapiens, UniProt P33261); test: Inhibition of CYP2C19; assay type: ADME
[6] = tested on: Blood; test: Antiinflammatory activity in rat whole blood assessed as inhibition of LPS-induced TNFalpha release treated for 45 mins before LPS challenge measured after 6 hrs by ELISA; assay type: functional, tissue-based
[7] = target: Ephrin type-B receptor 1 (Homo sapiens, UniProt P54762); test: Inhibition of EphB1
[8] = target: Cytochrome P450 1A2 (Homo sapiens, UniProt P05177); test: Inhibition of CYP1A2; assay type: ADME
Sequence of Cytochrome P450 1A2 (P05177 whole entry): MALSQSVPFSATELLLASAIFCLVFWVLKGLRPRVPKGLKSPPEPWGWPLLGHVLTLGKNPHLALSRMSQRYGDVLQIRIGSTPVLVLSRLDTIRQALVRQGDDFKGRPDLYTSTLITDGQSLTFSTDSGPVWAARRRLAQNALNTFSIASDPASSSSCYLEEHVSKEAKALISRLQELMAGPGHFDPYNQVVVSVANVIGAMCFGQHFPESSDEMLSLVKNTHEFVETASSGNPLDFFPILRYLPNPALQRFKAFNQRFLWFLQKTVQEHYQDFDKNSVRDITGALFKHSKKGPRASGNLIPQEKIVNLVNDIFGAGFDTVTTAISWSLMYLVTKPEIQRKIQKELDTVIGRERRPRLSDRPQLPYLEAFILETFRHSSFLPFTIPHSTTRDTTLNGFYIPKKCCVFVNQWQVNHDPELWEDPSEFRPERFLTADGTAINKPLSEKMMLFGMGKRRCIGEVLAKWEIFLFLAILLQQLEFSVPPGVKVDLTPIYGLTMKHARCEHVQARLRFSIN

[9] = target: Ephrin type-A receptor 1 (Homo sapiens) (UniProt P21709); test: Inhibition of EPHA1 at 10 uM
[10] = tested on: Mus musculus; test: Reduction in TNBS-induced colitis in mouse […] model assessed as decrease in inflammation histological score at 10 mg/kg administered intrarectally 1 day before TNBS challenge twice daily for 4 days by hematoxylin-eosin staining relative to control; assay type: functional, organism-based; set-up: dose 10 mg/kg
[11] = Oral bioavailability in dog at 5 mg/kg; assay type: ADME, organism-based, Canis lupus familiaris; details: in vivo
[12] = target: T3, Vascular endothelial growth factor receptor 3 (Homo sapiens, UniProt P35916); test: Inhibition of FLT4 at 10 uM
T3 sequence (P35916 whole entry): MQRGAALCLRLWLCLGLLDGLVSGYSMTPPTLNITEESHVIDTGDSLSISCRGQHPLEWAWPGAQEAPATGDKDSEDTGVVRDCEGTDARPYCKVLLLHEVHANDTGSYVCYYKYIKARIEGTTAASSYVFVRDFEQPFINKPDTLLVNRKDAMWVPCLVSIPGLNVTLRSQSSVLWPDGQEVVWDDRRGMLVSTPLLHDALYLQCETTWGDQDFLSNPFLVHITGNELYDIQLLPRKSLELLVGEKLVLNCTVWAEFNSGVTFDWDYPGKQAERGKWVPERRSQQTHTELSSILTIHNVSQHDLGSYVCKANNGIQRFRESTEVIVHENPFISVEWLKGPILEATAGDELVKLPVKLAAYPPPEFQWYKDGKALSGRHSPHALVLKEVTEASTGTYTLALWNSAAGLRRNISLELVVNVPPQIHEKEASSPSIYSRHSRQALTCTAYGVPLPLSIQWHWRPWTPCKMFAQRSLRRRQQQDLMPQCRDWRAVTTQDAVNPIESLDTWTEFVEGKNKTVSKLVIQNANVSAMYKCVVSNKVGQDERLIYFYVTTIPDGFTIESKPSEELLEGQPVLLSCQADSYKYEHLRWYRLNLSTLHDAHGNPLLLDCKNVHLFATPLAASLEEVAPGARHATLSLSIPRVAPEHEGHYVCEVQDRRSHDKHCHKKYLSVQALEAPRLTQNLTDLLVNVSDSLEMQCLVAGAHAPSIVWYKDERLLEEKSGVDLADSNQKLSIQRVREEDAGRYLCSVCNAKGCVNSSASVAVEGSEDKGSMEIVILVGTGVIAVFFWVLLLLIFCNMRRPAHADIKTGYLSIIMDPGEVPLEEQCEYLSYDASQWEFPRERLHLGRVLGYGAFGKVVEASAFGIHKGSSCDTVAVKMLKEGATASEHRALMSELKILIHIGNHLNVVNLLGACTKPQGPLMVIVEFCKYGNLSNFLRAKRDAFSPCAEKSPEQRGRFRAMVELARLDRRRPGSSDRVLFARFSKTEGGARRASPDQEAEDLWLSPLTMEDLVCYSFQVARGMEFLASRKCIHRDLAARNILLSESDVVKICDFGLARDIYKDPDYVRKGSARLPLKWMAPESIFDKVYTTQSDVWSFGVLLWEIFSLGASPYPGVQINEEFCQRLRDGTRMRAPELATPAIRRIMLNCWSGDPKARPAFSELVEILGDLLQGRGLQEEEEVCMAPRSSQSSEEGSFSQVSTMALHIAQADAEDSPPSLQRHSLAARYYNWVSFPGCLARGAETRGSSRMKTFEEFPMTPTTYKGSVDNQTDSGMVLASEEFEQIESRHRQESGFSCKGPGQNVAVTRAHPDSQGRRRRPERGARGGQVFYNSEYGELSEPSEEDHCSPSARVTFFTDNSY

[13] = tested on: PBMC; test: Antiinflammatory activity in human PBMC assessed as inhibition of LPS-induced TNFalpha release treated for 5 mins before LPS challenge measured after 4 hrs by ELISA; assay type: functional, cell-based; details: Homo sapiens, PBMC
[14] = target: Ephrin type-A receptor 1 (Homo sapiens, UniProt P21709); test: Inhibition of EPHA1
[15] = Cmax in dog at 5 mg/kg, po; assay type: ADME, organism-based, Canis lupus familiaris; set-up: dose 5 mg/kg, route oral; details: in vivo
[16] = tested on: Salmonella typhimurium; test: Induction of mutagenicity in Salmonella Typhimurium by Ames test; assay type: toxicity, organism-based; details: salmonella enterica subsp. enterica serovar typhimurium
[17] = target: Cytochrome P450 2C9 (Homo sapiens, UniProt P11712); test: Inhibition of CYP2C9; assay type: ADME
[18] = target: Inhibitor of nuclear factor kappa-B kinase subunit beta (Homo sapiens) (UniProt O14920); test: Inhibition of human IKK2 at 10 uM
[19] = Oral bioavailability in mouse at 3 mg/kg; assay type: ADME, organism-based; details: in vivo
[20] = target: Cytochrome P450 2D6 (Homo sapiens, UniProt P10635); test: Inhibition of CYP2D6; assay type: ADME
Sequence of Cytochrome P450 2D6 (P10635 whole entry): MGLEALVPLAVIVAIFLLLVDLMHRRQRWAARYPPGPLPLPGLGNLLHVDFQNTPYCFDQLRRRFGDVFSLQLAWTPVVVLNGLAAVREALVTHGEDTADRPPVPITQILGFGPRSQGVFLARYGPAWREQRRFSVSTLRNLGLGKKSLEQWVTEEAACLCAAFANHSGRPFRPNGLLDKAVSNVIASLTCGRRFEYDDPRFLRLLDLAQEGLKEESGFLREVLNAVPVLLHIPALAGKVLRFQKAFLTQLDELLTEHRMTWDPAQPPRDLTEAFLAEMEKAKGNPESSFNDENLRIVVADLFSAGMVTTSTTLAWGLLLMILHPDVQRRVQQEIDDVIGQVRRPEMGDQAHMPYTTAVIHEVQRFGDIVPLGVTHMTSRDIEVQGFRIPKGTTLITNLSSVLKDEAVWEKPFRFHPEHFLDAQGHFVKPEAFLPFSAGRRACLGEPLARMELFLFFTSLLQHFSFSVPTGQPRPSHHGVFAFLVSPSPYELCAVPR

[21] = Oral bioavailability in Lewis rat at 10 mg/kg; assay type: ADME, organism-based; details: in vivo
[22] = target: T3, Vascular endothelial growth factor receptor 3; test: Inhibition of FLT4
[23] = tested on: Mus musculus; test: Reduction in TNBS-induced colitis in mouse […] model assessed as decrease of body weight at 3 mg/kg, administered intrarectally 1 day before TNBS challenge twice daily for 4 days; assay type: functional; set-up: scale not given: the % may be the effect or the level left
[24] = Dissociation constant, pKa of the compound; assay type: physicochemical
[25] = tested on: Blood; test: Antiinflammatory activity in mouse whole blood assessed as inhibition of LPS-induced TNFalpha release treated for 45 mins before LPS challenge measured after 6 hrs by ELISA; assay type: functional, tissue-based
[26] = tested on: Blood; test: Antiinflammatory activity in human whole blood assessed as inhibition of LPS-induced TNFalpha release treated for 45 mins before LPS challenge measured after 6 hrs by ELISA; assay type: functional, tissue-based; details: Homo sapiens, Blood
[27] = target: T1, Protein-tyrosine kinase 6; test: Inhibition of BRK at 10 uM
Target sequence in this assay (Q13882 whole entry, looked up, the tested form may be a part): as the sequence (Q13882 whole entry, the tested form may be a part) above

[28] = Clearance in mouse at 2 mg/kg, iv; assay type: ADME, organism-based; set-up: dose 2 mg/kg, route intravenous; details: in vivo
[29] = tested on: Mus musculus; test: Reduction in TNBS-induced colitis in mouse […] model assessed as decrease of colon length at 10 mg/kg, administered intrarectally 1 day before TNBS challenge twice daily for 4 days; assay type: functional, organism-based; set-up: dose 10 mg/kg
[30] = AUC in SJL mouse liver at 8 mg/kg, iv after 8 hrs; assay type: ADME, organism-based; set-up: time < 8 hr, dose 8 mg/kg, route intravenous
[31] = Half life in mouse at 2 mg/kg, iv; assay type: ADME, organism-based; set-up: dose 2 mg/kg, route intravenous; details: in vivo
[32] = tested on: Mus musculus; test: Reduction in TNBS-induced colitis in intrarectally dosed mouse […] model assessed as decrease of body weight loss administered 1 day before TNBS challenge twice daily for 4 days; assay type: functional, organism-based
[33] = AUC in Sprague-Dawley rat plasma at 2 mg/kg, iv after 8 hrs; assay type: ADME, organism-based; set-up: time < 8 hr, dose 2 mg/kg, route intravenous
[34] = tested on: Mus musculus; test: Reduction in TNBS-induced colitis in intrarectally dosed mouse […] model assessed as decrease of colon length administered 1 day before TNBS challenge twice daily for 4 days; assay type: functional, organism-based
[35] = tested on: Mus musculus; test: Reduction in TNBS-induced colitis in mouse […] model assessed as decrease of colon length at 3 mg/kg, administered intrarectally 1 day before TNBS challenge twice daily for 4 days; assay type: functional
[36] = target: Inhibitor of nuclear factor kappa-B kinase subunit alpha (Homo sapiens, UniProt O15111); test: Inhibition of IKK1
Sequence of Inhibitor of nuclear factor kappa-B kinase subunit alpha (O15111 whole entry): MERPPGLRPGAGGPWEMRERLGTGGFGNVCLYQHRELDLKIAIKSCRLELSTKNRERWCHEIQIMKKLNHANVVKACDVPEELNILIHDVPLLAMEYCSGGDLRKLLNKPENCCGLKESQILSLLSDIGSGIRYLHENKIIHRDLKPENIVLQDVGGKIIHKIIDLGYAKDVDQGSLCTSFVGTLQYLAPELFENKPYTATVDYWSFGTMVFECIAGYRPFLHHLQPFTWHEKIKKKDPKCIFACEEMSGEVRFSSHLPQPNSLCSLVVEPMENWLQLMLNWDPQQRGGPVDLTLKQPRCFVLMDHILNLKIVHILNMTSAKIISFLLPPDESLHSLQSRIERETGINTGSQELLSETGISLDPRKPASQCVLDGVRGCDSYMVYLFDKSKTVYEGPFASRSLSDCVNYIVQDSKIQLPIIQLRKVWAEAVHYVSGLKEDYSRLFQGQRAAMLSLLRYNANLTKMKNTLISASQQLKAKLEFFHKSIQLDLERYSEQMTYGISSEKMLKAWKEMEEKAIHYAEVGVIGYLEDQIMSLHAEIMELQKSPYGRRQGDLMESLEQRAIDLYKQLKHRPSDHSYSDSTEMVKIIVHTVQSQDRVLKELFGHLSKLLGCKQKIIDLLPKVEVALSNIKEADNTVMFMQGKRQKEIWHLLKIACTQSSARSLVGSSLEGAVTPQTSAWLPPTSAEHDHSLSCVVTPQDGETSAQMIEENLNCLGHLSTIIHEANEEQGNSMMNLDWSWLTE

[37] = Cmax in mouse at 3 mg/kg, po; assay type: ADME, organism-based; set-up: dose 3 mg/kg, route oral; details: in vivo
[38] = AUC in SJL mouse plasma at 8 mg/kg, iv after 8 hrs; assay type: ADME, organism-based; set-up: time < 8 hr, dose 8 mg/kg, route intravenous
[39] = target: Vascular endothelial growth factor receptor 2 (Homo sapiens, UniProt P35968); test: Inhibition of KDR
Sequence of Vascular endothelial growth factor receptor 2 (P35968 whole entry): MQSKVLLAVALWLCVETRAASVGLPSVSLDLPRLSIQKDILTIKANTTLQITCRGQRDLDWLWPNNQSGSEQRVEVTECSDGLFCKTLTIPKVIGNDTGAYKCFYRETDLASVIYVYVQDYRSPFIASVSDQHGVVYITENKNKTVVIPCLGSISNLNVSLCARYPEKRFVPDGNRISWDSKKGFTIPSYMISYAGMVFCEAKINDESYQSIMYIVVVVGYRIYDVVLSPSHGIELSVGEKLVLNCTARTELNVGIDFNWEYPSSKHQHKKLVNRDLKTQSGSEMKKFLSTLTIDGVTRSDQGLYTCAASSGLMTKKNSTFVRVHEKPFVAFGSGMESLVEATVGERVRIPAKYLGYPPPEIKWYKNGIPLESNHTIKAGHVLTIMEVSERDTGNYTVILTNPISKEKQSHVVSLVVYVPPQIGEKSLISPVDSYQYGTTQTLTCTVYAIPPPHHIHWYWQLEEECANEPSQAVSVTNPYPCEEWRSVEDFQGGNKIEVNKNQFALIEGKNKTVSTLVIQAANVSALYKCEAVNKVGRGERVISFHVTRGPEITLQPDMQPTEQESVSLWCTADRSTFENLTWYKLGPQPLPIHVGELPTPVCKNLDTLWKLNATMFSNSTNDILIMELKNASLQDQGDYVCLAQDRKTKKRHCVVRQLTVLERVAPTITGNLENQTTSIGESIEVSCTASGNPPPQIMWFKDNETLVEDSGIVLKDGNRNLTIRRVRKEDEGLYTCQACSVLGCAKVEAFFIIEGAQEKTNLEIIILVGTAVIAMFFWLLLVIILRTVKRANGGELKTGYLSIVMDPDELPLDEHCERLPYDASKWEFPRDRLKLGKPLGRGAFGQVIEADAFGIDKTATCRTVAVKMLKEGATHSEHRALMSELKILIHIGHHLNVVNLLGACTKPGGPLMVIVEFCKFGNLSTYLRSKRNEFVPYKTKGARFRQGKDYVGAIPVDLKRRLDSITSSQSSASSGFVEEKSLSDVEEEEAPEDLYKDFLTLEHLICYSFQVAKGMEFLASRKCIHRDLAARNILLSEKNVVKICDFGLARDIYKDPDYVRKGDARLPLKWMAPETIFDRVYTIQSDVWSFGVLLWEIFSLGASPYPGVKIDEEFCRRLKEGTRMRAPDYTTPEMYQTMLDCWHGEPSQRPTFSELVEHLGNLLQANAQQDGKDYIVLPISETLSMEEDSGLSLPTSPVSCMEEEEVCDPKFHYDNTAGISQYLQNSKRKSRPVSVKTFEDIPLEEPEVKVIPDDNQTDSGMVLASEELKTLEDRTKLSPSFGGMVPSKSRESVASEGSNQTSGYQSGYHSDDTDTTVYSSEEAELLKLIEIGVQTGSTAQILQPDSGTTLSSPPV

[40] = AUC in Sprague-Dawley rat intestine at 2 mg/kg, iv after 8 hrs; assay type: ADME, organism-based; set-up: time < 8 hr, dose 2 mg/kg, route intravenous

## CNc1nc2[nH]c(-c3cccc(CNC(=O)COC)n3)cc2c2c1ncn2C
[1]
  IC50: 0.31 µM
[2]
  IC50: 0.009 µM
[3]
  Activity: Active
[4]
  Vd: 0.5 L/kg
[5]
  IC50: > 40 µM
[6]
  IC50: 1.7 µM
[7]
  IC50: 1.11 µM
[8]
  IC50: > 40 µM
[9]
  inhibition: > 75%
[10]
  Activity: Active
[11]
  bioavailability: 72%
[12]
  inhibition: > 75%
[13]
  IC50: 0.15 µM
[14]
  IC50: 0.686 µM
[15]
  Cmax: 10.3 µM
[16]
  Activity: Non-toxic
[17]
  IC50: 25 µM
[18]
  inhibition: > 75%
[19]
  bioavailability: 79%
[20]
  IC50: > 40 µM
[21]
  bioavailability: 90%
[22]
  IC50: 0.36 µM
[23]
  Activity: 10%
[24]
  pKa: 2.5
[25]
  IC50: 1.2 µM
[26]
  IC50: 1 µM
[27]
  inhibition: > 75%
[28]
  clearance: 52 mL/min/kg
[29]
  Activity: Active
[30]
  AUC at 8 h: 81 µM·h
[31]
  half-life: 39.6 min
[32]
  Activity: Dose-dependent effect
[33]
  AUC at 8 h: 13 µM·h
[34]
  Activity: Dose-dependent effect
[35]
  Activity: 1 cm
[36]
  IC50: 4.96 µM
[37]
  Cmax: 1.6 µM
[38]
  AUC at 8 h: 18 µM·h
[39]
  IC50: 1.49 µM
[40]
  AUC at 8 h: 156 µM·h
